Drawing on US20170152245A1 (National Taiwan University, priority 2015, published 2017), this text covers IC50 for 37 molecules.

The test system of the experiment is human platelet suspension. Kind of experiment: U46619-induced platelet aggregation in human platelet suspension. The class given is cell-based. Particulars: Homo sapiens, Platelet, U46619-induced aggregation, platelet suspension; read-out: P.S(U46619) IC50. As for the experimental part:
Human platelet suspension (PS) was prepared according to the method described previously. Briefly, blood sample, freshly obtained from healthy volunteers who had taken no medications during the preceding 2 weeks, was treated with acid citrate/dextrose (ACD) in a volume ratio of 9:1. After centrifugation at 120 g, 25° C. for 9 min, platelet-rich plasma was transferred into another plastic tube and incubated with heparin (6.4 U/ml) as well as prostaglandin E1 (1 μM). Platelets were spun down by centrifugation at 500 g, 25° C. for 8 min and subsequently washed two times with Tyrode solution (NaH2PO4 0.4 mM; NaCl 136.9 mM; KCl […]; NaHCO3 11.9 mM; CaCl2 2 mM; MgCl2 2.1 mM; glucose 11.1 mM; BSA 3.5 mg/ml; pH 7.35-7.4). The washed platelets were finally suspended in Tyrode's solution and the platelet count was adjusted to 3.75×10^8 platelets/ml. For platelet-rich plasma (PRP) preparation, whole blood was anticoagulated with 1/10 vol of sodium citrate (3.8%, w/v) and centrifuged at 150 g, 25° C. for 9 min.
Platelet aggregation was measured turbidimetrically with a Lumi-aggregometer (Payton Scientific) at 37° C. under stirring condition (900 rpm). Platelet suspensions were prewarmed to 37° C. for 2 min in a silicone-treated glass cuvette. Nstpbp5185 was added 3 min before the addition of platelet-aggregation inducers. The extent of platelet aggregation was determined by recording the increase of light transmission relative to that of control (maximal aggregation, as 100%) for 6 min after the addition of inducer. The final volume and platelet count for measuring platelet aggregation were 500 μl and 3×10^8/ml, respectively.

For the molecule `Cc1ccc(-c2nc3ccccc3n2Cc2ccccc2F)o1` [Example 13, 1-(o-Fluorobenzyl)-2-(5-methyl-2-furyl)benzimidazole], the IC50 amounted to 13.1 µM. With `Cc1ccc(-c2nc3ccccc3n2Cc2ccccn2)o1` [Example 22, 1-(2-Picoyl)-2-(5-methyl-2-furyl)benzimidazole], the IC50 was 4.29 µM. As for `Cc1ccc(-c2nc3ccccc3n2Cc2cccnc2)o1` [Example 23, 1-(3-Picoyl)-2-(5-methyl-2-furyl)benzimidazole], the IC50 turned out to be 3.01 µM. For `Cc1ccc(-c2nc3ccccc3n2Cc2ccncc2)o1` [Example 24, 1-(4-Picoyl)-2-(5-methyl-2-furyl)benzimidazole], the IC50 worked out at 14.6 µM.

In the case of `COc1ccc2[nH]c(-c3ccc(C)o3)nc2c1` [Example 25, 5-Methoxy-2-(5-methyl-2-furyl)benzimidazole], the IC50 turned out to be 44.5 µM. For `COc1ccc2nc(-c3ccc(C)o3)n(Cc3ccccc3)c2c1` [Example 25a, 1-benzyl-6-methoxy-2-(5-methyl-2-furyl)benzimidazole], the IC50 stood at 1.45 µM. With `COc1ccc2c(c1)nc(-c1ccc(C)o1)n2Cc1ccccc1` [Example 25b, 1-benzyl-5-methoxy-2-(5-methyl-2-furyl)benzimidazole], the IC50 stood at 3.3 µM. The result for `COc1ccc2nc(-c3ccc(C)o3)n(Cc3cccc(C)c3)c2c1` [Example 27a, 6-methoxy-1-(3-methylbenzyl)-2-(5-methyl-2-furyl)benzimidazole] reads 19.2 µM. For `COc1ccc2c(c1)nc(-c1ccc(C)o1)n2Cc1cccc(C)c1` [Example 27b, 5-methoxy-1-(3-methylbenzyl)-2-(5-methyl-2-furyl)benzimidazole], the IC50 was 26.9 µM. As for `Cc1ccc2[nH]c(-c3ccc(C)o3)nc2c1` [Example 29, 5-methyl-2-(5-methyl-2-furyl)benzimidazole], the IC50 was 33.7 µM.

Consider `Cc1ccc(-c2nc3cc(F)ccc3[nH]2)o1` [Example 30], for which the IC50 is 52.1 µM. For `Cc1ccc(-c2nc3ccc(F)cc3n2Cc2ccccc2)o1` [Example 30a, 1-benzyl-6-fluoro-2-(5-methyl-2-furyl)benzimidazole], the IC50 worked out at 6.79 µM. Consider `Cc1ccc(-c2nc3cc(F)ccc3n2Cc2ccccc2Cl)o1` [Example 31a, 5-fluoro-1-(2-chlorobenzyl)-2-(5-methyl-2-furyl)benzimidazole], for which the IC50 came to 22.7 µM. In the case of `Cc1ccc(-c2nc3ccc(F)cc3n2Cc2ccccc2Cl)o1` [Example 31b, 6-fluoro-1-(2-chlorobenzyl)-2-(5-methyl-2-furyl)benzimidazole] it was 12.7 µM; in that of `Cc1ccc(-c2nc3cc(F)ccc3n2Cc2cccc(Cl)c2)o1` [Example 32a, 5-fluoro-1-(3-chlorobenzyl)-2-(5-methyl-2-furyl)benzimidazole], 4.26 µM; in that of `Cc1ccc(-c2nc3ccc(F)cc3n2Cc2cccc(Cl)c2)o1` [Example 32b, 6-fluoro-1-(3-chlorobenzyl)-2-(5-methyl-2-furyl)benzimidazole], 3.09 µM. `COc1ccc(Cn2c(-c3ccc(C)o3)nc3cc(F)ccc32)cc1` [Example 34a, 5-fluoro-1-(4-methoxybenzyl)-2-(5-methyl-2-furyl)benzimidazole]: the IC50 amounted to 34.5 µM. In the case of `COc1ccc(Cn2c(-c3ccc(C)o3)nc3ccc(F)cc32)cc1` [Example 34b, 6-fluoro-1-(4-methoxybenzyl)-2-(5-methyl-2-furyl)benzimidazole], the IC50 came out at 32.2 µM.

For `Cc1ccc(-c2nc3cc(F)ccc3n2Cc2cccc(F)c2)o1` [Example 37a, 5-fluoro-1-(3-fluorobenzyl)-2-(5-methyl-2-furyl)benzimidazole], the IC50 stood at 1.7 µM. The result for `Cc1ccc(-c2nc3ccc(F)cc3n2Cc2cccc(F)c2)o1` [Example 37b, 6-fluoro-1-(3-fluorobenzyl)-2-(5-methyl-2-furyl)benzimidazole] reads 1.17 µM; that for `Cc1ccc(-c2nc3cc(F)ccc3n2Cc2ccccc2F)o1` [Example 38a, 5-fluoro-1-(2-fluorobenzyl)-2-(5-methyl-2-furyl)benzimidazole], 4.14 µM. Turning to `Cc1ccc(-c2nc3ccc(F)cc3n2Cc2ccccc2F)o1` [Example 38b, 6-Fluoro-1-(2-fluorobenzyl)-2-(5-methyl-2-furyl)benzimidazole], the IC50 amounted to 2.7 µM. In the case of `Cc1cccc(Cn2c(-c3ccc(C)o3)nc3cc(F)ccc32)c1` [Example 40a, 5-fluoro-1-(3-methylbenzyl)-2-(5-methyl-2-furyl)benzimidazole] it was 14.6 µM; in that of `Cc1cccc(Cn2c(-c3ccc(C)o3)nc3ccc(F)cc32)c1` [Example 40b, 6-Fluoro-1-(3-methylbenzyl)-2-(5-methyl-2-furyl)benzimidazole], 5.39 µM. In the case of `Cc1ccc(-c2nc3cc(F)ccc3n2Cc2ccccc2C)o1` [Example 41a, 5-fluoro-1-(2-methylbenzyl)-2-(5-methyl-2-furyl)benzimidazole] it was 2.61 µM; in that of `Cc1ccc(-c2nc3ccc(F)cc3n2Cc2ccccc2C)o1` [Example 41b, 6-fluoro-1-(2-methylbenzyl)-2-(5-methyl-2-furyl)benzimidazole], 2.38 µM; in that of `Cc1ccc(-c2nc3cc(Cl)ccc3[nH]2)o1` [Example 42], 37.3 µM. Turning to `Cc1ccc(-c2nc3ccc(Cl)cc3n2Cc2ccccc2)o1` [Example 42a, 1-benzyl-6-chloro-2-(5-methyl-2-furyl)benzimidazole], the IC50 came out at 3.55 µM.

With `Cc1ccc(-c2nc3cc(Cl)ccc3n2Cc2ccccc2)o1` [Example 42b, 1-benzyl-5-chloro-2-(5-methyl-2-furyl)benzimidazole], the IC50 stood at 4.43 µM.

With `Cc1ccc(-c2nc3ccc(Cl)cc3n2Cc2ccc(Cl)cc2)o1` [Example 43a, 6-chloro-1-(4-chlorobenzyl)-2-(5-methyl-2-furyl) benzimidazole], the IC50 came out at 36.5 µM.

Regarding `Cc1ccc(-c2nc3cc(Cl)ccc3n2Cc2ccc(Cl)cc2)o1` [Example 43b, 5-chloro-1-(4-chlorobenzyl)-2-(5-methyl-2-furyl)benzimidazole], the IC50 was 127 µM.

On to `Cc1ccc(-c2nc3cc(Cl)ccc3n2Cc2cccc(Cl)c2)o1` [Example 44a, 5-chloro-1-(3-chlorobenzyl)-2-(5-methyl-2-furyl)benzimidazole], for which the IC50 was 9.74 µM. `Cc1ccc(-c2nc3ccc(Cl)cc3n2Cc2cccc(Cl)c2)o1` [Example 44b, 6-chloro-1-(3-chlorobenzyl)-2-(5-methyl-2-furyl)benzimidazole]: the IC50 worked out at 3.1 µM. For `Cc1ccc(-c2nc3cc(Cl)ccc3n2Cc2ccccc2Cl)o1` [Example 45a, 5-chloro-1-(2-chlorobenzyl)-2-(5-methyl-2-furyl)benzimidazole], the IC50 was found to be 46.3 µM.

Turning to `Cc1ccc(-c2nc3ccc(Cl)cc3n2Cc2ccccc2Cl)o1` [Example 45b, 6-chloro-1-(2-chlorobenzyl)-2-(5-methyl-2-furyl)benzimidazole], the IC50 worked out at 7.52 µM. The result for `Cc1ccc(-c2nc3ccc(Cl)cc3n2Cc2ccc(F)cc2)o1` [Example 46a, 6-chloro-1-(4-fluorobenzyl)-2-(5-methyl-2-furyl)benzimidazole] reads 3.13 µM; that for `Cc1ccc(-c2nc3cc(Cl)ccc3n2Cc2ccc(F)cc2)o1` [Example 46b, 5chloro-1-(4-fluorobenzyl)-2-(5-methyl-2-furyl)benzimidazole], 9.59 µM.

By IC50 is commonly meant the midpoint of a concentration-inhibition curve.
